Test results from ChEMBL document CHEMBL4699634, “Series of Novel and Highly Potent Cyclic Peptide PCSK9 Inhibitors Derived from an mRNA Display Screen and Optimized via Structure-Based Design” (J Med Chem, 2020).
pEC50, pKi: −log10 of the molar value. Numbered stars: 1 amine (or outer) side, 2 acyl side, 3 side chain; on linkers, the order of the positions; unused ones are H or OH. Bridge positions count the residues as written; N and C are the ends. Square brackets hold non-standard residues; d marks the D form. Peptide text beside a SMILES is read from it. * marks the point of attachment. Trp(5-F) = N[C@@H](Cc1c[nH]c2ccc(F)cc12)C(=O)O; mXylylene(5-F) = Fc1cc(C[*:1])cc(C[*:2])c1; Nle(6-COOH) = N[C@@H](CCCCC(=O)O)C(=O)O; X1 = O=C(CCSCc1cccc(CSCCN[*:1])c1)[*:2]; mXylylene = c1cc(C[*:1])cc(C[*:2])c1; Asu = N[C@@H](CCCCCC(=O)O)C(=O)O; PEG4 = NCCOCCOCCOCCOCCC(=O)O; αMeP = C[C@@]1(C(=O)O)CCCN1; Orn = NCCC[C@H](N)C(=O)O; X2 = COCCOCCOCCOCCC(=O)*; Nva = CCC[C@H](N)C(=O)O; Mpa = O=C(O)CCS

Assays:
[1] = Enzymatic stability assessed as bovine pancreatic trypsin-mediated compound hydrolysis by measuring parent compound remaining at 100 uM incubated for 1 hr by LC-MS/MS analysis; assay type: ADME, Bos taurus; conditions: cattle, read-out: Stabilty
[2] = Half life in C57BL/6 mouse whole blood at 100 uM by LC-MS/MS analysis; assay type: ADME, tissue-based
[3] = Enzymatic stability assessed as porcine pepsin-mediated compound hydrolysis by measuring parent compound remaining at 100 uM incubated for 1 hr by LC-MS/MS analysis; assay type: ADME, Sus scrofa; conditions: pig, read-out: Stabilty
Chymotrypsinogen A = Chymotrypsinogen A (Bos taurus, UniProt P00766); assay: Enzymatic stability assessed as bovine pancreatic alpha-chymotrypsin-mediated compound hydrolysis by measuring parent compound remaining at 100 uM incubated for 1 hr by LC-MS/MS analysis; assay type: ADME; conditions: cattle, read-out: Stabilty
[4] = target: Chymotrypsin-like elastase family member 1 (Sus scrofa, UniProt P00772); assay: Enzymatic stability assessed as porcine type 4 pancreatic elastase-mediated compound hydrolysis by measuring parent compound remaining at 100 uM incubated for 1 hr by LC-MS/MS analysis; assay type: ADME; conditions: pig, read-out: Stabilty
Chymotrypsin-like elastase family member 1, sequence (P00772 whole entry, the tested form may be a part): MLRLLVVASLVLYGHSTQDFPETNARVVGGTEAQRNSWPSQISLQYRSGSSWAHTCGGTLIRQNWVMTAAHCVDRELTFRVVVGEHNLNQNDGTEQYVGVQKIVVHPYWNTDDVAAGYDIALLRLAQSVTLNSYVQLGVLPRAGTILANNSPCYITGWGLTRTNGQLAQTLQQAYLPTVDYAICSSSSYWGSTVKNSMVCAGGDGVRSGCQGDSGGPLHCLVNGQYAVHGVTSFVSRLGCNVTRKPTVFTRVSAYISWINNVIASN

PCSK9/LDLR = PCSK9/LDLR (Homo sapiens, UniProt Q8NBP7); assay: Inhibition of avi-tagged-biotinylated human PCSK9 interaction with His-tagged human LDLR EGFa domain by LANCE Ulight Streptavidin based TR-FRET assay; assay type: protein assay
PCSK9/LDLR, sequence (Q8NBP7 31-152 limits assumed): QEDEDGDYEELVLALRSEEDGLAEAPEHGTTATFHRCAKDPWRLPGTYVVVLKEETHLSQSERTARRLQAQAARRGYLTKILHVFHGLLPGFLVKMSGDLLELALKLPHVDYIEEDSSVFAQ
PCSK9/LDLR, sequence (Q8NBP7 153-692 limits assumed): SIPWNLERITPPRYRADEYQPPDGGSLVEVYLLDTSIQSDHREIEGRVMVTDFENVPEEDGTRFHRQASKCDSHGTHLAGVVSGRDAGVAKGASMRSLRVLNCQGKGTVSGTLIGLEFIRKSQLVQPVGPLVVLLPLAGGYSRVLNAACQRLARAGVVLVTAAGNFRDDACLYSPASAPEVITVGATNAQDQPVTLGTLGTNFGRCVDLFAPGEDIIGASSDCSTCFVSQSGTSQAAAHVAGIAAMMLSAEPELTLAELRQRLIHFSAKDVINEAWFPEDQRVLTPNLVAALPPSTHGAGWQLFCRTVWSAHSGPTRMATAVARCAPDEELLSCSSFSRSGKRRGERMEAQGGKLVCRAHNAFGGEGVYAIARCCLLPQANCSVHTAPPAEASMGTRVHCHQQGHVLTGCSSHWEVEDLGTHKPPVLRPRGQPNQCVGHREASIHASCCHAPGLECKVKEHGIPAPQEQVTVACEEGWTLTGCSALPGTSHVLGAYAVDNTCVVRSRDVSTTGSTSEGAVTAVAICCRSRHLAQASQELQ
PCSK9/LDLR, sequence (P01130 22-860 partner limits assumed): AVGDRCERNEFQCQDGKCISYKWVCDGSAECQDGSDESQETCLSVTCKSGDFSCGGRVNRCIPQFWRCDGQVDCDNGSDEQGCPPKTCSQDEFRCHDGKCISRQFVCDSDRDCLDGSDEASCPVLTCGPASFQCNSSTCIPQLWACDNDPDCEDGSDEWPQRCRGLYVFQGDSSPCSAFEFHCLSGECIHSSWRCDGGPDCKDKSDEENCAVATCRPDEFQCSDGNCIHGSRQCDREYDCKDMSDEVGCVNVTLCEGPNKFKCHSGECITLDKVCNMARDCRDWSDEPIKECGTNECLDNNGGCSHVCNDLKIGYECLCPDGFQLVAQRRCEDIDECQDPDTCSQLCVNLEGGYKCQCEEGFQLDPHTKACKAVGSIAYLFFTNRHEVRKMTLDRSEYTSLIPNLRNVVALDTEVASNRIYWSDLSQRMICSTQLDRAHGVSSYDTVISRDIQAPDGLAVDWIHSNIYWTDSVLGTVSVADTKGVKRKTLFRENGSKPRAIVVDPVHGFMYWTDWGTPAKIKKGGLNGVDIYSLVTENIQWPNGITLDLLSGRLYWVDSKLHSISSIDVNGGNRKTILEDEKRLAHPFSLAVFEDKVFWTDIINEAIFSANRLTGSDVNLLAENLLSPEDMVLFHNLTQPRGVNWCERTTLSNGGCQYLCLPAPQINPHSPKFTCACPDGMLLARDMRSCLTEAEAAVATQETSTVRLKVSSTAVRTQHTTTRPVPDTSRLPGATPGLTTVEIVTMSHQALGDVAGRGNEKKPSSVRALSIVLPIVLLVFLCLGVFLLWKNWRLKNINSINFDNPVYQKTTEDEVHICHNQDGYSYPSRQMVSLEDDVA

[5] = Cytotoxicity against Wistar rat isolated peritoneal cells assessed as reduction in cell viability up to 60 uM measured after 30 mins; assay type: cell-based; conditions: peritoneal macrophage cell, 0.5 h
[6] = target: Proprotein convertase subtilisin/kexin type 9 (Homo sapiens, UniProt Q8NBP7); assay: Inhibition of AlexaFluor647-tagged cyclic peptide binding to avi-tagged-biotinylated human PCSK9 measured after 2 hrs by Lance Streptavidin Europium based FRET assay
Proprotein convertase subtilisin/kexin type 9, sequence (Q8NBP7 31-152 limits assumed): as the sequence (Q8NBP7 31-152 limits assumed) above
Proprotein convertase subtilisin/kexin type 9, sequence (Q8NBP7 153-692 limits assumed): as the sequence (Q8NBP7 153-692 limits assumed) above

[7] = Induction of mast cell degranulation in Wistar rat isolated peritoneal cells assessed as effect on histamine release measured after 30 mins; assay type: tissue-based; conditions: for EC50: mast cell

remaining at 1 h, 100 µM [1] | half-life at 100 µM [2] | remaining at 1 h, 100 µM [3] | remaining at 1 h, 100 µM (Chymotrypsinogen A) | remaining at 1 h, 100 µM [4] | pKi (PCSK9/LDLR) | pKi [6] | pEC50 ([7]; Rattus norvegicus, Wistar, Mast cell, 0.5 h, read-out: EC50) | Structure (SMILES) | Activity [5] | EC50 [7]
1% | 1.49 h | 92.5% | 15.5% | 54.9% | 6.41 | – | – | C[C@@H]1NC(=O)CCSCc2cccc(c2)CSC[C@@H](C(N)=O)NC(=O)[C@@H]2CCCN2C(=O)[C@H](Cc2ccc(O)cc2)NC(=O)[C@H](Cc2cnc[nH]2)NC(=O)[C@H](CC(=O)O)NC(=O)[C@H](Cc2c[nH]c3ccc(F)cc23)NC(=O)[C@H](Cc2c[nH]c3ccc(F)cc23)NC(=O)CNC1=O ([Mpa]AG[Trp(5-F)][Trp(5-F)]DHYPC-NH2; linker 1-10 via mXylylene) | – | –
– | – | – | – | – | – | 7.97 | – | C[C@@]12CCCN1C(=O)[C@H](Cc1ccc(O)cc1)NC(=O)[C@H](Cc1cnc[nH]1)NC(=O)[C@H](CC(=O)O)NC(=O)[C@H](Cc1c[nH]c3ccc(F)cc13)NC(=O)[C@H](Cc1c[nH]c3ccc(F)cc13)NC(=O)CNC(=O)[C@H](CCCCNC(=O)CCOCCOCCOCCOCCN)NC(=O)CCSCc1cccc(c1)CSC[C@@H](C(N)=O)NC2=O ([Mpa]K(PEG4)G[Trp(5-F)][Trp(5-F)]DHY[αMeP]C-NH2; linker 1-10 via mXylylene) | Non-Toxic | Non-Toxic
96% | > 6 h | 98.6% | 39.5% | 96.3% | – | 8.03 | – | COCCOCCOCCOCCC(=O)NCCCC[C@@H]1NC(=O)CCSCc2cccc(c2)CSC[C@@H](C(N)=O)NC(=O)[C@]2(C)CCCN2C(=O)[C@H](Cc2ccc(O)cc2)NC(=O)[C@H](Cc2cnc[nH]2)NC(=O)[C@H](CC(=O)O)NC(=O)[C@H](Cc2c[nH]c3ccc(F)cc23)NC(=O)[C@H](Cc2c[nH]c3ccc(F)cc23)NC(=O)CNC1=O ([Mpa]K(X2)G[Trp(5-F)][Trp(5-F)]DHY[αMeP]C-NH2; linker 1-10 via mXylylene) | Non-Toxic | Non-Toxic
1.9% | > 6 h | 95% | 91% | 51% | 7.62 | 7.93 | – | C[C@@H](O)[C@@H]1NC(=O)[C@@H]2CCCN2C(=O)[C@H](Cc2c[nH]c3ccc(F)cc23)NC(=O)[C@H](Cc2c[nH]c3ccc(F)cc23)NC(=O)CNC(=O)[C@H](CCCCN)NC(=O)CCSCc2cccc(c2)CSC[C@@H](C(N)=O)NC(=O)[C@]2(C)CCCN2C(=O)[C@H](Cc2ccc(O)cc2)NC1=O ([Mpa]KG[Trp(5-F)][Trp(5-F)]PTY[αMeP]C-NH2; linker 1-10 via mXylylene) | – | –
– | – | – | – | – | – | 7.96 | – | C[C@H]1NC(=O)[C@H](CCCCN)NC(=O)CCSCc2cc(F)cc(c2)CSC[C@@H](C(N)=O)NC(=O)[C@]2(C)CCCN2C(=O)[C@H](Cc2ccc(O)cc2)NC(=O)[C@H]([C@@H](C)O)NC(=O)[C@@H]2CCCN2C(=O)[C@H](Cc2c[nH]c3ccc(F)cc23)NC(=O)[C@H](Cc2c[nH]c3ccc(F)cc23)NC1=O ([Mpa]K[dA][Trp(5-F)][Trp(5-F)]PTY[αMeP]C-NH2; linker 1-10 via mXylylene(5-F)) | – | –
– | – | – | – | – | 7.02 | 7.45 | 5.15 | CCC[C@@H]1NC(=O)CCSCc2cccc(c2)CSC[C@@H](C(N)=O)NC(=O)[C@]2(C)CCCN2C(=O)[C@H](Cc2ccc(O)cc2)NC(=O)[C@H](Cc2cnc[nH]2)NC(=O)[C@H](CC(=O)O)NC(=O)[C@H](Cc2c[nH]c3ccc(F)cc23)NC(=O)[C@H](Cc2c[nH]c3ccc(F)cc23)NC(=O)CNC1=O ([Mpa][Nva]G[Trp(5-F)][Trp(5-F)]DHY[αMeP]C-NH2; linker 1-10 via mXylylene) | Non-Toxic | –
– | – | – | – | – | 6.88 | 7.84 | – | C[C@@]12CCCN1C(=O)[C@H](Cc1ccc(O)cc1)NC(=O)[C@H](Cc1cnc[nH]1)NC(=O)[C@H](CC(=O)O)NC(=O)[C@H](Cc1c[nH]c3ccc(F)cc13)NC(=O)[C@H](Cc1c[nH]c3ccc(F)cc13)NC(=O)CNC(=O)[C@H](CCCN)NC(=O)CCSCc1cccc(c1)CSC[C@@H](C(N)=O)NC2=O ([Mpa][Orn]G[Trp(5-F)][Trp(5-F)]DHY[αMeP]C-NH2; linker 1-10 via mXylylene) | Non-Toxic | Non-Toxic
0.8% | 5.56 h | 99.1% | 7.4% | 46.1% | 7.58 | 8.37 | – | C[C@@]12CCCN1C(=O)[C@H](Cc1ccc(O)cc1)NC(=O)[C@H](Cc1cnc[nH]1)NC(=O)[C@H](CC(=O)O)NC(=O)[C@H](Cc1c[nH]c3ccc(F)cc13)NC(=O)[C@H](Cc1c[nH]c3ccc(F)cc13)NC(=O)CNC(=O)[C@H](CCCCN)NC(=O)CCSCc1cccc(c1)CSCCNC2=O (cyclo(DHY[αMeP][X1]KG[Trp(5-F)][Trp(5-F)])) | – | –

Structure (SMILES) | remaining at 1 h, 100 µM [1] | half-life at 100 µM [2] | remaining at 1 h, 100 µM [3] | remaining at 1 h, 100 µM (Chymotrypsinogen A) | remaining at 1 h, 100 µM [4] | pKi (PCSK9/LDLR) | pKi [6] | pEC50 ([7]; Rattus norvegicus, Wistar, Mast cell, 0.5 h, read-out: EC50) | Activity [5] | EC50 [7]
COc1ccc(C[C@@H]2NC(=O)[C@H](Cc3cnc[nH]3)NC(=O)[C@H](CC(=O)O)NC(=O)[C@H](Cc3c[nH]c4ccc(F)cc34)NC(=O)[C@H](Cc3c[nH]c4ccc(F)cc34)NC(=O)[C@@H](C)NC(=O)[C@H](CCCCC(=O)O)NC(=O)CCSCc3cccc(c3)CSCCNC(=O)[C@]3(C)CCCN3C2=O)cc1 (cyclo(DHY(Me)[αMeP][X1][Nle(6-COOH)][dA][Trp(5-F)][Trp(5-F)])) | – | – | – | – | – | – | 7.07 | – | Non-Toxic | Non-Toxic
COc1ccc(C[C@@H]2NC(=O)[C@H](Cc3cnc[nH]3)NC(=O)[C@H](CC(=O)O)NC(=O)[C@H](Cc3c[nH]c4ccc(F)cc34)NC(=O)[C@H](Cc3c[nH]c4ccc(F)cc34)NC(=O)[C@@H](C)NC(=O)[C@H](CCCCCC(=O)O)NC(=O)CCSCc3cccc(c3)CSCCNC(=O)[C@]3(C)CCCN3C2=O)cc1 (cyclo([Asu][dA][Trp(5-F)][Trp(5-F)]DHY(Me)[αMeP][X1])) | – | – | – | – | – | – | 7.09 | – | Non-Toxic | Non-Toxic
